Assay results taken from patent US10857089B2, “Cosmetic compositions comprising purple coneflower pressed juice” (Symrise AG, priority 2015, dated 2020).

Tests used:
[1] = system: CYP1A1 gene expression; assay: CYP1A1 gene expression after induction with indoor particles, qRT-PCR in keratinocytes; assay type: cell-based, human; details: for Induction mean ± SE (CYP1A1): 10 μM, Huber990 1.5 μg/cm2, untreated = 1
Experimental: (§1) Gene expression was analyzed via qRT-PCR.

[2] = system: POMC gene expression; assay: Particle induced POMC gene expression, qRT-PCR in keratinocytes; assay type: cell-based, human; details: SRM1650b, control = 1
Experimental: as §1
(§2) Ginger root CO2 extract has been dissolved in DMSO and diluted in medium. […] Gene expression was analyzed via qRT-PCR. […] Table 7 compiles the results for ginger root CO2 extract altered POMC and IL-6 gene expression
(§3) Purple coneflower pressed juice has been dissolved directly in medium. […] Gene expression was analyzed via qRT-PCR. […] Table 8 compiles the results for purple coneflower pressed juice altered POMC and IL-6 gene expression
(§4) A mixture of purple coneflower pressed juice and ginger root CO2 extract has been pre-dissolved in DMSO and diluted in medium. […] Gene expression was analyzed via qRT-PCR. […] Table 9 compiles the results for purple coneflower pressed juice altered POMC and IL-6 gene expression

[3] = system: MMP1 gene expression; assay: Particle induced MMP1 gene expression, qRT-PCR in keratinocytes; assay type: cell-based, human; details: SRM1650b, control = 1
Experimental: as §1

[4] = system: IL-6 gene expression; assay: Particle induced IL-6 gene expression, qRT-PCR in keratinocytes; assay type: cell-based, human; details: SRM1650b, control = 1
Experimental: as §1, §2, §3, §4

[5] = system: CYP1A1 gene expression; assay: CYP1A1 gene expression after induction with outdoor particles, qRT-PCR in keratinocytes; details: for CYP1A1 Induction mean ± SE: NHEK adult, 10 μM, untreated = 1
Experimental: Adult human epidermal keratinocytes were cultured in keratinocyte medium without BPE and without EGF for 24 h prior to addition of model particles (see table 1.1). The model particles were suspended in phosphate buffered saline and were sonicated for 1 min and then directly added to the keratinocytes at 1.5 μg/cm^2. E/Z-2-benzylindene-5,6-dimethoxy-3,3-dimethylindan-1-one (BDDI) has been dissolved in DMSO and diluted in medium. Solutions containing the compound with maximal 0.1% DMSO were applied 2 h prior to treatment with the model particles. Gene expression was analyzed via qRT-PCR. For each gene, a specific PCR primer pair was designed as compiled in Table 2:
Adult human epidermal keratinocytes were cultured in keratinocyte medium without BPE and without EGF for 24 h prior to addition of model particles (see table 1.1). The model particles were suspended in phosphate buffered saline and were sonicated for 1 min and then directly added to the keratinocytes at 1.5 μg/cm^2. Sclareolide has been dissolved in DMSO and diluted in medium. Solutions containing the compound with maximal 0.1% DMSO were applied 2 h prior to treatment with the model particles. Gene expression was analyzed via qRT-PCR. For each gene, a specific PCR primer pair was designed (see Table 2).

- Induction mean ± SE (CYP1A1) ([1]; 6 h): 0.05 ± 0.00
- Induction mean ± SE (CYP1A1) ([1]; 24 h): 0.20 ± 0.00
- inhibition of particle induced Cyp1A1 gene expression (in words) ([1]; indoor model particles): capable to inhibit
- CYP1A1 Induction mean ± SE ([5]; 6 h, SRM1650 1.5 μg/cm2): 0.02 ± 0.00
- CYP1A1 Induction mean ± SE ([5]; 6 h, SRM2975 1.5 μg/cm2, particle control 1.03): 0.20 ± 0.00
- CYP1A1 Induction mean ± SE ([5]; 24 h, SRM2975 1.5 μg/cm2): 0.01 ± 0.00
- inhibition of particle induced Cyp1A1 gene expression (in words) ([5]; outdoor model particles): capable to inhibit
Substance: E/Z-2-benzylindene-5,6-dimethoxy-3,3-dimethylindan-1-one [BDDI]
- POMC 6 h ([2]; 1 μM): 0.9 ± 0.018
- POMC 6 h ([2]; 2.5 μM): 1.1 ± 0.02
- POMC 6 h ([2]; 10 μM): 0.9 ± 0.001
- MMP1 24 h ([3]; 1 μM): 0.7 ± 0.014
- MMP1 24 h ([3]; 2.5 μM): 0.8 ± 0.016
- MMP1 24 h ([3]; 10 μM): 0.5 ± 0.022
- IL-6 6 h ([4]; 1 μM): 0.9 ± 0.067
- IL-6 6 h ([4]; 2.5 μM): 0.6 ± 0.006
- IL-6 6 h ([4]; 10 μM): 0.5 ± 0.01
